Patent US12616192B2, “Compositions and methods for preserving or increasing platelet function” (Washington University, priority 2021, dated 2026)
Read-outs that look alike come from different tables or passages of the source.

Experiments:
platelets [1] = settings: cited from earlier work
platelets [2] = settings: in vitro taurine addition; cited from earlier work
[3] = system: platelet concentrates (CS-PLT); test: occlusive clot formation in a collagen-coated stenotic microfluidic chamber (microfluidic model of occlusion); assay type: cell-based; settings: for time to occlude the microfluidic channel versus non-supplemented CS-PLT: 500 μM taurine at the beginning of storage
Description: Next, the ability of the platelet concentrates to form an occlusive clot against an arterial pressure head in a stenotic microfluidic chamber coated with collagen was analyzed (FIG. 2). The important variable/metric extracted from this platelet function is the occlusion area under the curve, or OAUC; a larger OAUC implies faster and more robust occlusion, and thus improved hemostatic platelet function.
To determine if this was the case, experiments were performed to supplement CS-PLT with taurine during storage, with the hypothesis that the supplemental (or “extra”) taurine would lead to inhibition of aggregation, as similar to the aforementioned reports from the literature. Next, the platelet concentrates were supplemented at the beginning of storage with 500 μM taurine, and assayed for alterations in function using a microfluidic model of occlusion.

platelets [4] = settings: rats fed taurine; cited from earlier work

## NCCS(=O)(=O)O [taurine, 2-aminoethanesulfonic acid]
Platelets [1]; 1989 study, taurine supplementation in humans
  ex vivo platelet aggregation: reduced aggregation
Platelets [1]; 2010 study, healthy human donors that drank taurine-containing solutions
  ex vivo platelet aggregation: increased ex vivo aggregation
Platelets [2]
  platelet aggregation: inhibit platelet aggregation
[3]; CS-PLT supplemented with 500 μM taurine at the beginning of storage (TaurSTORAGE)
  platelet aggregation (shift of occlusion curves, OAUC): increased platelet aggregation
[3]; D7 CS-PLT
  time to occlude the microfluidic channel versus non-supplemented CS-PLT: half of the time
[3]; D14 CS-PLT
  time to occlude the microfluidic channel versus non-supplemented CS-PLT: half of the time
[3]; D14 non-supplemented CS-PLT, exogenous taurine 500 μM added just prior to assessment (TaurASSAY)
  occlusion curve phenotype: middle phenotype
[3]; taurine supplementation during platelet concentrate storage
  hemostatic function under physiologically relevant flow: robustly increases hemostatic function
Platelets [4]
  ex vivo platelet aggregation: reduced platelet aggregation
